Measured values from patent US11731980B1, “Furo[3,4-b]quinolone compounds as antibacterial agents” (KING FAISAL UNIVERSITY, priority 2023, dated 2023).
Converted amounts (≈) assume the structure as drawn. Like-named read-outs stand apart in the source and are kept apart here.

What was measured:
[1] = test system: Staphylococcus aureus ATCC BAA-1556 (MERSA resistant); test: In vitro antibacterial activity, CLSI M07-A10 dilution (MIC); type: cell-based; conditions: ATCCBAA1556
[2] = test system: Pseudomonas aeruginosa MTCC 741; test: as above; type: cell-based; conditions: MTCC741
[3] = test system: Enterococcus faecium ATCC 35667; test: as above; type: cell-based; conditions: ATCC35667
[4] = test system: Staphylococcus epidermidis; test: as above; type: cell-based
[5] = test system: Staphylococcus aureus ATCC 29213; test: as above; type: cell-based; conditions: ATCC29213
[6] = test system: Klebsiella pneumonia MTCC 618; test: as above; type: cell-based; conditions: Klebsiella pneumoniae, MTCC618
[7] = test system: Bacillus subtilis MTCC 441; test: as above; type: cell-based; conditions: MTCC441
[8] = test system: Enterococcus faecium ATCC 51559 (VRE resistant); test: as above; type: cell-based
[9] = test system: Escherichia coli MTCC 443; test: as above; type: cell-based; conditions: MTCC443
[10] = test system: Mycobacterium tuberculosis H37Rv strain; test: Anti-tubercular alamar blue microplate assay (MIC); type: cell-based; conditions: 168 h, M. tuberculosis H37Rv, seven days at 37° C., read-out: anti-mycobacterial activity (MIC)
[11] = target: T1, DNA gyrase from E. coli (Escherichia coli, UniProt P0AES4+P0AES6); test: Inhibitory activity on E. coli DNA gyrase (Inspiralis assay); type: biochemical
T1 construct: purchased Inspiralis
Protocol: Inhibitory potencies were investigated utilizing the Inspiralis assay on streptavidin-coated 96-well microtiter plates. First, the plates were rehydrated with buffer (20 mM Tris-HCl with pH 7.6, 0.01% w/v BSA, 0.05% v/v Tween 20, 137 mM NaCl) and the biotinylated oligonucleotide was then immobilized. After washing off the unbound oligonucleotide, the enzyme test was performed. The reaction volume of 30 μL in buffer (35 mM Tris×HCl with pH 7.5, 4 mM MgCl2, 24 mM KCl, 2 mM DTT, 1.8 mM spermidine, 1 mM ATP, 6.5% w/v glycerol, 0.1 mg/mL albumin) contained 1.5 U of DNA gyrase from E. coli, 0.75 μg of relaxed pNO1 plasmid, and 3 μL solution of the inhibitor in 10% DMSO and 0.008% Tween 20. Reaction solutions were incubated at 37° C. for 30 min. After that, the TF buffer (50 mM NaOAc with pH 5.0, 50 mM NaCl and 50 mM MgCl2) was added to terminate the enzymatic reaction. After additional incubation for 30 min at rt, during which biotinoligonucleotide-plasmid triplex was formed, the unbound plasmid was washed off using TF buffer and SybrGOLD in T10 buffer (10 mM Tris HCl with pH 8.0 and 1 mM EDTA) was added. The fluorescence was measured with a microplate reader (BioTek Synergy H4, excitation: 485 nm, emission: 535 nm). Initial screening was done at 100 or 10 μM concentration of inhibitors. […] GraphPad Prism software was used to calculate the IC50 values. […]

T1 sequence (P0AES4 whole entry, one chain of several): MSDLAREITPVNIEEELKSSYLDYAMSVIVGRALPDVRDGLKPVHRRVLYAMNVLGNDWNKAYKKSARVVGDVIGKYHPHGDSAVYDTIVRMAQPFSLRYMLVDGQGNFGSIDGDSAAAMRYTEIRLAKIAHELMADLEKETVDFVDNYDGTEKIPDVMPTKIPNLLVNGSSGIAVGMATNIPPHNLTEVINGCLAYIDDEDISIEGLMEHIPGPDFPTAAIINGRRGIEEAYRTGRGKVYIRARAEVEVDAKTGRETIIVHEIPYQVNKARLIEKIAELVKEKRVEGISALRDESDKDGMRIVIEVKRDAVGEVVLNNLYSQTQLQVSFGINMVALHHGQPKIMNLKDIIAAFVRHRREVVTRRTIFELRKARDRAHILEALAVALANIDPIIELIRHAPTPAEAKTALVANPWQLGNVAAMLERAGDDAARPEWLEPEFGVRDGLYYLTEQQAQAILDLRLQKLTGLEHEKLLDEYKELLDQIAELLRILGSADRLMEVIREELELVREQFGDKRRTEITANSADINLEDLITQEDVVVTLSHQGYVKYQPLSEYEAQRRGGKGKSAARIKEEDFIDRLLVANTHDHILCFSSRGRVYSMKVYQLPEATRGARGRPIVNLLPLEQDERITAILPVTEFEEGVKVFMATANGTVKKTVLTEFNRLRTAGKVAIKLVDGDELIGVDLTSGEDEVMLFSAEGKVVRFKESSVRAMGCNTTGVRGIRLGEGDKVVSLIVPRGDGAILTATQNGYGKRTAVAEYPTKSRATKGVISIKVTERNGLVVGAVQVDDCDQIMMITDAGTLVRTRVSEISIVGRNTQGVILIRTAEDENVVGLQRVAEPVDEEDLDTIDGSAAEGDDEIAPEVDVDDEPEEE

Row | SMILES | MIC ([1]; Staphylococcus aureus) | MIC ([2]; Pseudomonas aeruginosa) | MIC ([3]; Enterococcus faecium) | MIC [4] | MIC ([5]; Staphylococcus aureus) | MIC [6] | MIC ([7]; Bacillus subtilis) | MIC ([8]; Enterococcus faecium) | MIC ([9]; Escherichia coli) | MIC [10] | IC50 [11] | MIC ([1]; Staphylococcus aureus ATCC BAA-1556 (MERSA resistant), read-out: MIC) | MIC ([2]; Pseudomonas aeruginosa MTCC 741, read-out: MIC) | MIC ([3]; Enterococcus faecium ATCC 35667, read-out: MIC) | MIC ([4]; read-out: MIC) | MIC ([5]; Staphylococcus aureus ATCC 29213, read-out: MIC) | MIC ([6]; Klebsiella pneumonia MTCC 618, read-out: MIC) | MIC ([7]; Bacillus subtilis MTCC 441, read-out: MIC) | MIC ([8]; Enterococcus faecium ATCC 51559 (VRE resistant), read-out: MIC) | MIC ([9]; Escherichia coli MTCC 443, read-out: MIC)
1 | CN[C@H](CC(C)C)C(=O)N[C@H]1C(=O)N[C@@H](CC(N)=O)C(=O)N[C@H]2C(=O)N[C@H]3C(=O)N[C@H](C(=O)N[C@H](C(=O)O)c4cc(O)cc(O)c4-c4cc3ccc4O)[C@H](O)c3ccc(c(Cl)c3)Oc3cc2cc(c3O[C@@H]2O[C@H](CO)[C@@H](O)[C@H](O)[C@H]2O[C@H]2C[C@](C)(N)[C@H](O)[C@H](C)O2)Oc2ccc(cc2Cl)[C@H]1O [Vancomycin, reference compound] | 1 µg/mL (≈ 0.69 µM) | > 128 µg/mL | 0.5 µg/mL (≈ 0.345 µM) | 1 µg/mL (≈ 0.69 µM) | 1 µg/mL (≈ 0.69 µM) | > 128 µg/mL | 0.5 µg/mL (≈ 0.345 µM) | > 128 µg/mL | > 128 µg/mL |  |  |  |  |  |  |  |  |  |  | 
2 | CCCCCN(C)Cc1cc(-c2c3c(nc4cc(NC(=O)C5CC5)ccc24)COC3=O)ccc1C(=O)O [Compound 8, 4-(6-(cyclopropanecarboxamido)-1-oxo-1,3-dihydrofuro[3,4-b]quinolin-9-yl)-2-((methyl(pentyl)amino)methyl)benzoic acid] |  |  |  |  |  |  |  |  |  | 4 µg/mL (≈ 7.97 µM) | 550 nM | 16 µg/mL (≈ 31.9 µM) | 8 µg/mL (≈ 15.9 µM) | 8 µg/mL (≈ 15.9 µM) | 16 µg/mL (≈ 31.9 µM) | 16 µg/mL (≈ 31.9 µM) | 8 µg/mL (≈ 15.9 µM) | 8 µg/mL (≈ 15.9 µM) | 16 µg/mL (≈ 31.9 µM) | 16 µg/mL (≈ 31.9 µM)
